Several values for one entry are separate records, joined by “and”; a condition that tells them apart may be missing. Equal entries are not always repeated.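 Results reflect a 48-hour exposure of cells in 96-well plates to compound at five concentrations. The concentration for 50% growth inhibition is given as GI50. TGI denotes the concentration required for complete inhibition of growth.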

In the experiment the test system is MDA-MB-468 breast. The experiment can be described thus: growth of human tumour cells (NCI), 48 h.
As to `Cc1cc(N2CCN(C)CC2)nc(N(CCNc2ccnc3cc(Cl)ccc23)Cc2ccco2)n1`, the GI50 is 2070 nM and the TGI worked out at 6.1 µM.

Regarding `Cc1ccc(NC(C(=O)c2ccccc2)c2ccccc2)cc1` (stereo not drawn), the GI50 is 2180 nM and the TGI came out at 8.85 µM.

In the case of `COC(=O)c1c2c(c(C)[n+]([O-])c1C)C(=O)C=C(NCc1ccc(Br)cc1)C2=O`, the GI50 was 207 nM and the TGI worked out at 0.816 µM.

For `Cc1ccc(-n2nnc3c(sc4ccccc43)c2=O)cc1`, the GI50 was 18500 nM and the TGI is greater than 100 µM.

Turning to `Nc1cccc2c1CN(C1CCC(=O)NC1=O)C2=O` (stereo not drawn), the GI50 was greater than 100000 nM and the TGI is greater than 100 µM.

Consider `O=C(NC1CCNCC1)c1[nH]ncc1NC(=O)c1c(Cl)cccc1Cl`, for which the GI50 is 191 nM and 209 nM; the TGI was 0.434 µM and 0.525 µM.

With `O=C(N/N=C/c1ccncc1)c1ccc(C(F)(F)F)nc1Nc1cccc(C(F)(F)F)c1`, the GI50 is 1350 nM and the TGI is 4.39 µM.

With `CCOC(=O)c1c(C(F)(F)F)n([O-])c2ccc(Cl)cc2[n+]1=O`, the GI50 is 1790 nM and the TGI is 3.92 µM.

Turning to `Cc1ccc2c(n1)C(=O)C(Cl)=C(Nc1ccc(N3CCN(C)CC3)cc1)C2=O`, the GI50 is 1510 nM and the TGI stood at 3.13 µM.

Take `O=c1c(-c2ccc3c(c2)OCO3)coc2c(CO)c(O)ccc12`: the GI50 is 1850 nM and the TGI stood at 5.37 µM.

For `COc1ccc(Oc2nc(Nc3ccc(N4CCOCC4)cc3)ncc2NC(=O)Nc2cc(OC)cc(OC)c2)cc1`, the GI50 was 3390 nM and the TGI came to 11.7 µM.

`O=[N+]([O-])c1ccc(N/N=C/c2ccccc2O)nc1`: the GI50 is 3120 nM and the TGI came to 29.9 µM.

Regarding `C/C(=C\CCc1ccsc1)CC/C=C(\C)CCCN1CCN(CCO)CC1`, the GI50 is 1610 nM and the TGI amounted to 4.1 µM.

As for `O=c1[nH]cc(CO)c(=O)[nH]1`, the GI50 was greater than 100000 nM and the TGI is greater than 100 µM.

For `CCCCCCCCn1ccc2cc(NC(=O)Cn3cc(CN4CCC(C)CC4)nn3)ccc21`, the GI50 is 1620 nM and the TGI is 3.29 µM.

With `COc1cc(OC)cc(C(=O)Nc2cccc(C#Cc3cccc4[nH]nc(N)c34)c2)c1`, the GI50 was 558 nM and the TGI was found to be 3.92 µM.

In the case of `Cc1cc(NS(=O)(=O)c2ccc(NC(=O)COc3ccc(-c4cc5ccccc5[nH]4)cc3)cc2)no1`, the GI50 is 1610 nM and the TGI was 3.52 µM.

Turning to `CS(=O)/C(C#N)=C\C=C\c1cccc(Cl)c1` (stereo not drawn), the GI50 is 1270 nM and the TGI is 4.28 µM.

On to `CCc1ccc(Oc2nccc(-c3c(-c4ccc(F)cc4)ncn3C3CCNCC3)n2)cc1`, for which the GI50 was 3710 nM and the TGI amounted to 7.59 µM.

With `Oc1[nH]c2ccc(Cl)cc2c1/C=c1/ccc2c(c1)N=C(c1ccc(C(F)(F)F)cc1)N=2`, the GI50 is 1940 nM and the TGI was 4.57 µM.

For `C[C@@H](Oc1cc(-c2cnn(C3CC4(CNC4)C3)c2)cnc1N)c1c(Cl)ccc(F)c1Cl`, the GI50 is 2460 nM and the TGI came to 9.35 µM.

`Cc1ccc(C2NC(=S)N3C(c4ccc(C)cc4)NC(=S)N23)cc1` (stereo not drawn): the GI50 is 4620 nM and the TGI turned out to be 18.9 µM.

For `Cc1cc(Br)c2nsnc2c1[N+](=O)[O-]`, the GI50 is 1450 nM and the TGI worked out at 3.24 µM.

Take `NS(=O)(=O)c1cccc(-c2cc3ccncc3cc2OCc2ccccc2)c1`: the GI50 is 4080 nM and the TGI was 16 µM.

As to `CCN1CCN(CC(=O)Nc2nc3ccc(NCc4ccc(C)cc4)cc3s2)CC1`, the GI50 is 2030 nM and the TGI was 8.96 µM.

`O=[N+]([O-])c1ccc(Oc2cccc(C(F)(F)F)c2)c([N+](=O)[O-])c1`: the GI50 is 1640 nM and the TGI was 3.1 µM.

Turning to `N#Cc1ccc(N2Cc3cc(Cl)ccc3OC3=C2C(=O)N(Cc2ccc(F)cc2)C3=O)cc1`, the GI50 is 595 nM and the TGI amounted to 1.34 µM.

Take `COc1ccc(C2=NNC(c3cc(Cc4ccc(O)c(C5CC(c6ccc(OC)cc6)=NN5)c4)ccc3O)C2)cc1` (stereo not drawn): the GI50 is 2970 nM and the TGI stood at 22.9 µM.

As for `Nc1ncnc2c1nc(N)n2C1OC(CO)C(O)C1O` (stereo not drawn), the GI50 is 220 nM and the TGI was determined as 1.15 µM.

Take `C=C1C(=O)O[C@H]2[C@H]1CC/C(COC(=O)c1cccc3ccccc13)=C\CC[C@@]1(C)O[C@@H]21`: the GI50 was 1350 nM and the TGI was found to be 3.13 µM.

`O=C1c2ccccc2C(=O)c2c(NCCNCCO)ccc(NCCNCCO)c21`: the GI50 was 904 nM and 1300 nM and 1660 nM; the TGI was 2.45 µM and 2.92 µM and 3.84 µM.

`Cc1ccn2c(-c3csc(Nc4cccc(O)c4)n3)c(C)nc2c1`: the GI50 is 1770 nM and the TGI came out at 7.91 µM.

Consider `O=C1c2cccc3cccc(c23)C(=O)N1CC#Cc1ccc2c3c(cccc13)C(=O)N(CCN1CCNCC1)C2=O`, for which the GI50 is 2190 nM and the TGI was 5.3 µM.

Turning to `O=C(Nc1ccc2cc3ccc(NC(=O)N4CCCCCC4)cc3nc2c1)N1CCCCCC1`, the GI50 was 1560 nM and the TGI amounted to 3.03 µM.

Take `O=S1CCN(Cc2ccc(-c3ccc4ncnc(Nc5ccc(OCc6ccccc6)c(F)c5)c4c3)o2)CC1`: the GI50 is 130 nM and the TGI turned out to be 1.19 µM.

With `c1cc2ccc3cc2cc1CNCCOCCNCc1ccc2ccc(cc2c1)CNCCOCCNC3`, the GI50 was greater than 100000 nM and the TGI is greater than 100 µM.

With `CCCCCCCCCCCCNC(=O)[C@H]1CSC(c2cc(Br)cs2)N1` (stereo partly drawn), the GI50 is 890 nM and the TGI worked out at 1.74 µM.

In the case of `COc1cc2nc(Cl)nc(Nc3cccc(C4=Nc5c(N)nc(N)nc5NC(c5ccc(Cl)cc5)C4)c3)c2cc1OC` (stereo not drawn), the GI50 was 1730 nM and the TGI turned out to be 3.49 µM.

Regarding `COc1ccccc1N(C(C)=O)C1=C(Cl)C(=O)c2ccccc2C1=O`, the GI50 is 487 nM and the TGI was found to be 1.94 µM.

Consider `CCOC(=O)C1=C(C)NC(C)=C(C(=O)OCC)C1c1cc(Br)c(O)c(OC)c1`, for which the GI50 was 2880 nM and the TGI was 14.4 µM.

For `NC(Cc1ccc(O)cc1)C(=O)N/N=C/c1ccc(N(CCCl)CCCl)cc1` (stereo not drawn), the GI50 was 958 nM and the TGI amounted to 10.5 µM.

Regarding `CC(=O)Nc1c(I)c(C(=O)O)c(I)c(N(C)C(C)=O)c1I`, the GI50 was greater than 100000 nM and the TGI was greater than 100 µM.

As to `O=C1NC(=O)C(N2CCc3ccccc32)=C1c1ccc(Cl)cc1`, the GI50 was greater than 25000 nM and the TGI was greater than 25 µM.

Consider `Cc1ccc(-c2c3c(N)nc(-c4ccncc4)nc3nc3c2c(C)nn3-c2ccccc2)cc1`, for which the GI50 was greater than 37500 nM and the TGI is greater than 37.5 µM.
